From ChEMBL document CHEMBL1201862, “PubChem BioAssay data set” (2004)
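Method: 48-hour compound exposure of cells in 96-well plates, five concentrations, linear interpolation of endpoints. GI50 = concentration required for 50% inhibition of growth.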 Activity calls are given as the source filed them. No stated cut-off is given here; in the data, active = GI50 up to about 1.1 µM and inactive = higher.

Columns and labels:
Assay in all cases: NCI anticancer screen, dose series, 48 h
786-0 = system: 786-0
A549 = system: A549
ACHN = system: ACHN
COLO 205 = system: COLO 205
HCT-116 = system: HCT-116
HOP-62 = system: HOP-62
HT-29 = system: HT-29
KM12 = system: KM12
LOX IMVI = system: LOX IMVI
NCI-H226 = system: NCI-H226
NCI-H522 = system: NCI-H522
OVCAR-4 = system: OVCAR-4
OVCAR-5 = system: OVCAR-5
RPMI-8226 = system: RPMI-8226
RXF 393 = system: RXF 393
SR = system: SR
UACC-62 = system: UACC-62
EKVX = system: EKVX

| Structure (SMILES) | GI50 (786-0) | GI50 (A549) | GI50 (ACHN) | GI50 (COLO 205) | GI50 (HCT-116) | GI50 (HOP-62) | GI50 (HT-29) | GI50 (KM12) | GI50 (LOX IMVI) | GI50 (NCI-H226) | GI50 (NCI-H522) | GI50 (OVCAR-4) | GI50 (OVCAR-5) | GI50 (RPMI-8226) | GI50 (RXF 393) | GI50 (SR) | GI50 (UACC-62) | GI50 (EKVX) |
| --- | --- | --- | --- | --- | --- | --- | --- | --- | --- | --- | --- | --- | --- | --- | --- | --- | --- | --- |
| CCOC(=O)[C@H]1Nc2ccc(OC)cc2C2c3ccccc3CC21 (some centres not stated) | > 100 µM (inactive) | > 100 µM (inactive) | > 100 µM (inactive) | > 100 µM (inactive) | > 100 µM (inactive) | > 100 µM (inactive) | > 100 µM (inactive) | > 100 µM (inactive) | > 100 µM (inactive) | > 100 µM (inactive) | > 100 µM (inactive) | > 100 µM (inactive) | > 100 µM (inactive) | > 100 µM (inactive) | 37.5 µM (inactive) | > 100 µM (inactive) | > 100 µM (inactive) | – |
| Cc1nc(O)nc(CC(O)(c2ccccc2)c2ccccc2)c1-c1ccccc1 | > 100 µM (inactive) | > 100 µM (inactive) | > 100 µM (inactive) | > 100 µM (inactive) | > 100 µM (inactive) | > 100 µM (inactive) | > 100 µM (inactive) | > 100 µM (inactive) | > 100 µM (inactive) | > 100 µM (inactive) | 58.5 µM (inactive) | > 100 µM (inactive) | > 100 µM (inactive) | – | > 100 µM (inactive) | – | > 100 µM (inactive) | > 100 µM (inactive) |
| CS/C(=N/C(=O)c1ccccc1Cl)SCCS/C(=N\C(=O)c1ccccc1Cl)SC | > 100 µM (inactive) | > 100 µM (inactive) | > 100 µM (inactive) | > 100 µM (inactive) | > 100 µM (inactive) | > 100 µM (inactive) | > 100 µM (inactive) | > 100 µM (inactive) | > 100 µM (inactive) | > 100 µM (inactive) | > 100 µM (inactive) | > 100 µM (inactive) | > 100 µM (inactive) | > 100 µM (inactive) | > 100 µM (inactive) | – | > 100 µM (inactive) | > 100 µM (inactive) |
| CN(C)CCSc1nccc(-c2cc3ccccc3s2)n1 | 24.2 µM (inactive) | 17.6 µM (inactive) | – | 17.2 µM (inactive) | 24.4 µM (inactive) | 23.8 µM (inactive) | 9.06 µM (inactive) | 19.3 µM (inactive) | 17.1 µM (inactive) | 14.9 µM (inactive) | 20.1 µM (inactive) | 38.5 µM (inactive) | 27.2 µM (inactive) | – | 18.5 µM (inactive) | 19.2 µM (inactive) | 20.4 µM (inactive) | – |
| Cc1nc2c(n1CC(C)(C)C)C(=O)c1ccccc1C2=O | > 100 µM (inactive) | > 100 µM (inactive) | > 100 µM (inactive) | > 100 µM (inactive) | 79.3 µM (inactive) | > 100 µM (inactive) | 98.9 µM (inactive) | > 100 µM (inactive) | 55.6 µM (inactive) | > 100 µM (inactive) | 92.7 µM (inactive) | > 100 µM (inactive) | – | – | > 100 µM (inactive) | 97.7 µM (inactive) | 89.5 µM (inactive) | > 100 µM (inactive) |
| CNS(=O)(=O)NNS(=O)(=O)c1cccc([N+](=O)[O-])c1 | > 100 µM (inactive) | > 100 µM (inactive) | > 100 µM (inactive) | > 100 µM (inactive) | > 100 µM (inactive) | > 100 µM (inactive) | > 100 µM (inactive) | > 100 µM (inactive) | > 100 µM (inactive) | – | > 100 µM (inactive) | > 100 µM (inactive) | – | > 100 µM (inactive) | > 100 µM (inactive) | > 100 µM (inactive) | > 100 µM (inactive) | > 100 µM (inactive) |
| N#Cc1ccc(Nc2cnc3cc(N)ccc3n2)cc1 | 85.1 µM (inactive) | > 100 µM (inactive) | 69 µM (inactive) | > 100 µM (inactive) | 55 µM (inactive) | > 100 µM (inactive) | 50.5 µM (inactive) | > 100 µM (inactive) | 75.2 µM (inactive) | > 100 µM (inactive) | 48.2 µM (inactive) | > 100 µM (inactive) | > 100 µM (inactive) | 42.7 µM (inactive) | 26.5 µM (inactive) | 44.4 µM (inactive) | 83.4 µM (inactive) | 98.2 µM (inactive) |
| COC(=O)c1ccc(C(=O)OC)c2nc3cc(Cl)ccc3nc12 | > 100 µM (inactive) | > 100 µM (inactive) | > 100 µM (inactive) | > 100 µM (inactive) | > 100 µM (inactive) | > 100 µM (inactive) | 75.3 µM (inactive) | > 100 µM (inactive) | > 100 µM (inactive) | > 100 µM (inactive) | > 100 µM (inactive) | > 100 µM (inactive) | > 100 µM (inactive) | > 100 µM (inactive) | – | – | > 100 µM (inactive) | > 100 µM (inactive) |
| CCCC/C=C1\CCC(CN2CCCC2)C1=O (configuration not stated) | 1.83 µM (inactive) | 18.5 µM (inactive) | 6.46 µM (inactive) | 12.9 µM (inactive) | 14.3 µM (inactive) | 18.4 µM (inactive) | 14.5 µM (inactive) | 2.61 µM (inactive) | 8.09 µM (inactive) | 17.3 µM (inactive) | – | – | 19.1 µM (inactive) | – | – | 4.36 µM (inactive) | 17.1 µM (inactive) | 3.98 µM (inactive) |
| N=C(NNS(=O)(=O)c1ccccc1)Oc1ccc(Br)cc1Br | 41.3 µM (inactive) | > 100 µM (inactive) | > 100 µM (inactive) | > 100 µM (inactive) | > 100 µM (inactive) | > 100 µM (inactive) | 55.7 µM (inactive) | > 100 µM (inactive) | > 100 µM (inactive) | 73.5 µM (inactive) | 67 µM (inactive) | > 100 µM (inactive) | > 100 µM (inactive) | 57.8 µM (inactive) | > 100 µM (inactive) | > 100 µM (inactive) | > 100 µM (inactive) | > 100 µM (inactive) |
| CCOC(=O)C1=C(C)N(NC(=O)Nc2ccccc2)C2(N)N(NC(=O)Nc3ccccc3)C(C)=C(C(=O)OCC)C12C#N (configuration not stated) | 18 µM (inactive) | 26.5 µM (inactive) | 21 µM (inactive) | 17.7 µM (inactive) | 17.5 µM (inactive) | – | 20.7 µM (inactive) | – | 18.9 µM (inactive) | 18.4 µM (inactive) | 18.9 µM (inactive) | 17.4 µM (inactive) | 17.8 µM (inactive) | 22 µM (inactive) | 13.6 µM (inactive) | – | 17.5 µM (inactive) | – |
| CCOC(=O)C12CCSC1C1(C#N)C(C#N)=CC2(N=P(c2ccccc2)(c2ccccc2)c2ccccc2)n2c(=O)n(-c3ccccc3)c(=O)n21 (configuration not stated) | 47.8 µM (inactive) | 34.9 µM (inactive) | 40.2 µM (inactive) | 37.8 µM (inactive) | 36.9 µM (inactive) | 46.2 µM (inactive) | 39.8 µM (inactive) | 32.6 µM (inactive) | 39.9 µM (inactive) | 41.3 µM (inactive) | 29.5 µM (inactive) | 21.9 µM (inactive) | > 100 µM (inactive) | 26.1 µM (inactive) | > 100 µM (inactive) | – | 27.5 µM (inactive) | 82.2 µM (inactive) |
| C/C(CC(=O)Nc1ccc(C)c(C)c1)=N\NC(N)=O | > 100 µM (inactive) | > 100 µM (inactive) | > 100 µM (inactive) | > 100 µM (inactive) | > 100 µM (inactive) | > 100 µM (inactive) | > 100 µM (inactive) | > 100 µM (inactive) | > 100 µM (inactive) | 57.9 µM (inactive) | 82 µM (inactive) | – | > 100 µM (inactive) | > 100 µM (inactive) | > 100 µM (inactive) | – | > 100 µM (inactive) | > 100 µM (inactive) |
| CC1=NN(C(=O)c2ccncc2)C(=O)C1/N=N/c1ccc(F)cc1 (configuration not stated) | > 100 µM (inactive) | > 100 µM (inactive) | > 100 µM (inactive) | > 100 µM (inactive) | 96.8 µM (inactive) | – | > 100 µM (inactive) | – | > 100 µM (inactive) | 81.1 µM (inactive) | > 100 µM (inactive) | > 100 µM (inactive) | > 100 µM (inactive) | > 100 µM (inactive) | 58.1 µM (inactive) | – | > 100 µM (inactive) | 20 µM (inactive) |
| N#CC1=C(N)Oc2c(ccc3cccnc23)C1c1ccccc1 (configuration not stated) | 6 µM (inactive) | 0.738 µM (active) | 10.4 µM (inactive) | 1.24 µM (inactive) | 0.562 µM (active) | 1.16 µM (inactive) | 0.339 µM (active) | 0.441 µM (active) | 1.34 µM (inactive) | – | – | 17.2 µM (inactive) | 72.4 µM (inactive) | – | 2.13 µM (inactive) | 0.333 µM (active) | 0.697 µM (active) | 4.78 µM (inactive) |
| Cc1nc2nnc(C)n2c2c1C(=O)Nc1ccccc1N2 | > 100 µM (inactive) | > 100 µM (inactive) | > 100 µM (inactive) | > 100 µM (inactive) | > 100 µM (inactive) | > 100 µM (inactive) | > 100 µM (inactive) | > 100 µM (inactive) | > 100 µM (inactive) | > 100 µM (inactive) | > 100 µM (inactive) | – | – | > 100 µM (inactive) | > 100 µM (inactive) | > 100 µM (inactive) | > 100 µM (inactive) | > 100 µM (inactive) |
| Cc1ccc(S(=O)(=O)NC(=O)NCCC(=O)O)cc1 | > 100 µM (inactive) | > 100 µM (inactive) | > 100 µM (inactive) | > 100 µM (inactive) | > 100 µM (inactive) | > 100 µM (inactive) | > 100 µM (inactive) | > 100 µM (inactive) | > 100 µM (inactive) | – | > 100 µM (inactive) | > 100 µM (inactive) | > 100 µM (inactive) | > 100 µM (inactive) | > 100 µM (inactive) | > 100 µM (inactive) | > 100 µM (inactive) | – |
